Tested on: blood pool
Test: Mouse CEST MR imaging at 4.7T
Type: in vivo
Conditions: mouse sacrificed 1 minute after injection, ~0.6 mmol Eu(II)/kg, saturation at -52 ppm vs +52 ppm
Method: Data was recorded at 4.7T on Bruker MR imager in a mouse sacrificed 1 minute after injection of Eu-polyLysine CEST (Example 4a) compound in water at a ˜0.6 mmol Eu(II)/kg dose (saturation pulse with a power of ˜25 μT for 2.0 s using 1000 Gauss pulses of 2 ms each).
Reference tubes contain from left to right: water, compound at 10 mM Eu(III) concentration, compound at 50 mM Eu(III) concentration and, Magnevist at a concentration such that T1˜1s.

In the case of “polylysine conjugate with the europium complex of 1,4,7,10-tetra-[N-(carboxymethyl)-carbamoyl-methyl]1,4,7,10-tetraaza-cyclododecane [Example 4a]”, the “contrast in digital difference axial image (control minus CEST image)” value is reported as “contrast enhancement in the blood pool”.
